Laboratory results as given in patent US6350251B1, “Biocidal locks” (Biolink Corporation, priority 2000, dated 2002).

Experiments:
S. epidermis = conditions: cited from earlier work
Candida albicans [1] = experiment: Inoculated DIALOCK port/catheter filled with lock solution, flush cultured on blood agar (Example 7); type: cell-based; set-up: key to organisms remaining, DIALOCK port flush: TNTC: Too numerous to count; conditions: inoculum 5 cfu/0.1 mL; 2% citrated taurolidine or 5000 U/mL heparin (with preservative); 37° C. for 72 hours
Description: (§1) Clinical blood isolates of coagulase negative staphylococcus, Candida albicans, Staphylococcus aureus, Enterococcus, and Pseudomonas aeruginosa were inoculated into trypticase soy broth and allowed to incubate at 37° C. until the cultures were visibly turbid. Serial dilutions were made to obtain a final cell density of 10 colony forming units (cfu)/0.1 mL for S. aureus, Enterococcus, and Pseudomonas aeruginosa; 5 cfu/0.1 mL for Candida; 100 cfu/0.1 mL for coagulase negative staph. and Enterobacter. From the final dilution, 0.1 mL was instilled into each distal end of a DIALOCK port tube, and the DIALOCK port was incubated at room temperature overnight. After incubation, a regular silicon catheter was placed on the distal end of both sides of each DIALOCK port. A solution of 5000 U/mL of heparin (with preservative) or 2% citrated taurolidine was instilled through the proximal end of the DIALOCK port to fill the DIALOCK port and catheter. The catheter was clamped and the DIALOCK port/catheter was incubated at 37° C. for 72 hours. Following this incubation, both catheters were removed from each DIALOCK port and each was flushed with 0.1 mL of nutrient broth.

[2] = system: coagulase negative staphylococcus; experiment: as above; type: cell-based; set-up: key to organisms remaining, DIALOCK port flush: TNTC: Too numerous to count; conditions: inoculum 100 cfu/0.1 mL; 2% citrated taurolidine or 5000 U/mL heparin (with preservative); 37° C. for 72 hours
Description: as §1

Enterococcus = experiment: as above; type: cell-based; set-up: key: TNTC: Too numerous to count; conditions: inoculum 10 cfu/0.1 mL; 2% citrated taurolidine or 5000 U/mL heparin (with preservative); 37° C. for 72 hours
Description: as §1

Staphylococcus aureus = experiment: as above; type: cell-based; set-up: key: TNTC: Too numerous to count; conditions: inoculum 10 cfu/0.1 mL; 2% citrated taurolidine or 5000 U/mL heparin (with preservative); 37° C. for 72 hours
Description: as §1

Pseudomonas aeruginosa = experiment: as above; type: cell-based; set-up: key: TNTC: Too numerous to count; conditions: inoculum 10 cfu/0.1 mL; 2% citrated taurolidine or 5000 U/mL heparin (with preservative); 37° C. for 72 hours
Description: as §1

Enterobacter = experiment: as above; type: cell-based; set-up: key: TNTC: Too numerous to count; conditions: inoculum 100 cfu/0.1 mL; 2% citrated taurolidine or 5000 U/mL heparin (with preservative); 37° C. for 72 hours
Description: as §1

Candida albicans [3] = conditions: oral isolate of Candida albicans to human buccal epithelial cells; concentration dependent; cited from earlier work
E. coli [4] = conditions: urine isolate of E. coli to human uroepithelial cells; concentration dependent; cited from earlier work
B. fragilis = conditions: mice, intravenous 0.2 mL of a 20% solution in sterile 5% polyvinyl pyrrolidone; intraperitoneal B. fragilis; cited from earlier work
[5] = clinical, bacteriologic outcomes, endotoxemia, organ failure, 28-day mortality rate as end points; cited from earlier work
[6] = system: Vancomycin-Internediate Susceptibility Staphylococcus A ureus (VISA) and Methicillin-Resistant Staphylococcus Aureus (MRSA); conditions: range of from pH 7.0 to pH 5.0; cited from earlier work
E. coli [7] = conditions: mice, intravenous 0.2 mL of a 20% solution in sterile 5% polyvinyl pyrrolidone; intraperitoneal E. coli; cited from earlier work
blood = experiment: Clotting of pig blood in containers holding taurolidine solution with or without ACD-A (Example 1); conditions: pig blood filled up to 30 mL over 5, 10 or 15 mL 0.5% taurolidine in Ringer-lactate, or 5 mL taurolidine solution plus 2 mL ACD-A; inspected after 30 minutes
Description: A 0.5% solution of taurolidine in Ringer-lactate solution (Thomae, Biberach, Germany) was introduced into each of four polyethylene bottles having a 30 mL volume. Filling volumes were 5, 10, and 15 mL. One bottle was filled with 5 mL of the taurolidine solution and 2 mL ACD-A (Fresenius, Bad Homburg, Germany) solution. ACD-A solution is used for the conservation of whole blood and contains per liter: 22.0 grams of sodium citrate dihydrate, 7.3 grams of citric acid and 34.5 grams of glucose monohydrate.
Blood was collected at a slaughter house from a female pig directly from the slaughter wound into the containers that were then filled up to the 30 mL level. The containers were capped and gently moved to mix blood with the solution. The containers were inspected after 30 minutes. Blood in the containers containing only taurolidine was clotted, but the blood in the container containing the mixture of taurolidine and ACD-A was not clotted.

Compound	organisms remaining, Catheter flush (Candida albicans [1])	organisms remaining, DIALOCK port flush (Candida albicans [1])	organisms remaining, Catheter flush [2]	organisms remaining, DIALOCK port flush [2]	organisms remaining, Catheter flush (Enterococcus)	organisms remaining, DIALOCK port flush (Enterococcus)	organisms remaining, Catheter flush (Staphylococcus aureus)	organisms remaining, DIALOCK port flush (Staphylococcus aureus)	organisms remaining, Catheter flush (Pseudomonas aeruginosa)	organisms remaining, DIALOCK port flush (Pseudomonas aeruginosa)	organisms remaining, Catheter flush (Enterobacter)	organisms remaining, DIALOCK port flush (Enterobacter)	microbial anti-adherence activity (Candida albicans [3])	microbial anti-adherence activity (E. coli [4])	also measured
Heparin	20 cfu	TNTC	No growth	TNTC	TNTC	TNTC	TNTC	TNTC	TNTC	TNTC	TNTC	TNTC			inhibition of growth of S. epidermis (S. epidermis; isolate from the catheter of an infected patient): does not inhibit the growth
povidone-iodine													significant anti-adherence activity	significant anti-adherence activity	
O=C([O-])CN(CCN(CC(=O)[O-])CC(=O)O)CC(=O)O.[Na+].[Na+] [disodium EDTA]															concentration shown to be bactericidal (S. epidermis; initial inoculum of 10^3 CFU of staphylococci per mL, in 24 hours): 20 mg/mL
O=S1(=O)CCN(CN2CCS(=O)(=O)NC2)CN1 [taurolidine, bis-(1,1-dioxo-perhydroxy-1,2,4-thiadiazin-4-yl)methane]	No growth*	No growth	No growth	No growth	No growth	No growth	No growth	No growth	No growth**	No growth	No growth	No growth	significant anti-adherence activity	significant anti-adherence activity	mortality rate (B. fragilis): very significantly reduce the mortality rate; therapeutic effect on the outcome of patients with sepsis syndrome [5]: no beneficial therapeutic effect; taurolidine activity versus pH [6]: increases with decreasing pH; mortality rate (E. coli [7]): very significantly reduce the mortality rate; state of blood in the containers (blood): clotted
[H]/N=C(\N/C(=N/[H])NCCCCCCNC(=N)NC(=N)Nc1ccc(Cl)cc1)Nc1ccc(Cl)cc1 [chlorhexidine]													significant anti-adherence activity	significant anti-adherence activity	
CN[C@H](CC(C)C)C(=O)N[C@H]1C(=O)N[C@@H](CC(N)=O)C(=O)N[C@H]2C(=O)N[C@H]3C(=O)N[C@H](C(=O)N[C@H](C(=O)O)c4cc(O)cc(O)c4-c4cc3ccc4O)[C@H](O)c3ccc(c(Cl)c3)Oc3cc2cc(c3O[C@@H]2O[C@H](CO)[C@@H](O)[C@H](O)[C@H]2O[C@H]2C[C@](C)(N)[C@H](O)[C@H](C)O2)Oc2ccc(cc2Cl)[C@H]1O [Vancomycin]															dose found to be bactericidal (S. epidermis; initial inocula of 10^3 CFU/mL): 6.7 µg/mL
